Test systems include A549 NSCLC; SN12C renal; CAKI-1 renal; NCI-H460 lung; MCF7 breast; MALME-3M melanoma; TK-10 renal; MOLT-4 leukemia; OVCAR-5 ovarian; NCI-H23 lung.
Assay in all cases: DTP human tumour cell line panel, 48 h

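How tested: cells in 96-well plates exposed to compound for 48 hours at five concentrations. The concentration for 50% growth inhibition is given as GI50. The concentration for full growth arrest is given as TGI.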 Some results are limits rather than exact numbers.

In general, GI50 refers to the concentration at which growth is held to half of that of the control. Usually TGI stands for the concentration giving total growth inhibition. Take `CC1=C(c2cccc(O)c2)[C@H](c2ccc(OCCN3CC(CF)C3)cc2)Oc2ccc(O)cc21`: the GI50 with A549 NSCLC is 7.81 µM; in the assay on SN12C renal, 7.42 µM; in the assay with CAKI-1 renal, 3.13 µM; in the assay with NCI-H460 lung it was 4.94 µM; in the assay with MCF7 breast, 0.0194 µM; in the assay on MALME-3M melanoma, 3.23 µM. In addition, the GI50 with TK-10 renal is 12 µM; with MOLT-4 leukemia, 3.59 µM; in the assay on OVCAR-5 ovarian, 12.4 µM; in the assay on NCI-H23 lung, 11.2 µM. For the same compound, the total growth inhibition concentration (TGI) in the assay on A549 NSCLC is 23.8 µM; in the assay on SN12C renal, 21.3 µM; in the assay with CAKI-1 renal it was 12.9 µM; in the assay with NCI-H460 lung it was 18.2 µM; in the assay on MCF7 breast, 13.4 µM; in the assay with MALME-3M melanoma it was 13.3 µM. Besides, the TGI amounted to 25.1 µM with TK-10 renal, 16 µM in the assay with MOLT-4 leukemia, 25 µM with OVCAR-5 ovarian and 25.1 µM in the assay on NCI-H23 lung.
As for `NCCCC[C@@H]1NC(=O)[C@H]2CCCN2C(=O)[C@H](Cc2ccccc2)CNC(=O)[C@H](Cc2ccccc2)NC1=O`, the GI50 with A549 NSCLC, in the assay with SN12C renal, with CAKI-1 renal, in the assay with NCI-H460 lung, in the assay on MCF7 breast and with MALME-3M melanoma was > 37.5 µM throughout. In addition, the GI50 with TK-10 renal, with MOLT-4 leukemia, in the assay with OVCAR-5 ovarian and in the assay on NCI-H23 lung was > 37.5 µM each time. In addition, the concentration for total growth inhibition (TGI) in the assay on A549 NSCLC, with SN12C renal, in the assay with CAKI-1 renal, in the assay on NCI-H460 lung, in the assay on MCF7 breast and in the assay on MALME-3M melanoma was > 37.5 µM each time. Further, the TGI in the assay with TK-10 renal, in the assay with MOLT-4 leukemia, in the assay with OVCAR-5 ovarian and in the assay with NCI-H23 lung was > 37.5 µM in each case.
In the case of `Cc1cc2c(C(C)C)c(O)c(O)cc2c(O)c1-c1c(C)cc2c(C(C)C)c(O)c(O)cc2c1O`, the GI50 with A549 NSCLC was 17.2 µM; with SN12C renal, 8.03 µM; in the assay with CAKI-1 renal, 19.2 µM; in the assay on NCI-H460 lung it was 11.8 µM; in the assay on MCF7 breast, 11.4 µM; in the assay with MALME-3M melanoma, 10.9 µM. Further, the GI50 with TK-10 renal is 13.6 µM; with MOLT-4 leukemia it was 10.6 µM; with OVCAR-5 ovarian, 17.9 µM; with NCI-H23 lung, 18.4 µM. The TGI turned out to be 47.2 µM in the assay on A549 NSCLC; 20.6 µM in the assay on SN12C renal; 82.6 µM in the assay on CAKI-1 renal; 40 µM in the assay on NCI-H460 lung; 29.5 µM in the assay on MCF7 breast; 24.6 µM in the assay with MALME-3M melanoma. For the same compound, the TGI stood at 83.4 µM in the assay with TK-10 renal, 44.9 µM in the assay with MOLT-4 leukemia, 36.5 µM with OVCAR-5 ovarian and 37.5 µM in the assay on NCI-H23 lung.
Consider `COc1ccc2c(c1)c(CC(=O)[Se]C)c(C)n2C(=O)c1ccc(Cl)cc1`, for which the 50% growth inhibitory concentration (GI50) is > 0.283 µM in the assay with A549 NSCLC; > 0.49 µM in the assay on SN12C renal; > 0.266 µM in the assay on CAKI-1 renal; > 0.304 µM in the assay on NCI-H460 lung; > 0.35 µM in the assay with MCF7 breast; > 0.346 µM in the assay with MALME-3M melanoma. Further, the GI50 in the assay on TK-10 renal was > 0.347 µM; in the assay with MOLT-4 leukemia, > 0.335 µM; with OVCAR-5 ovarian, > 0.424 µM; in the assay with NCI-H23 lung it was > 0.376 µM. Also, the TGI was > 0.603 µM with A549 NSCLC; > 1 µM in the assay with SN12C renal; > 0.515 µM in the assay with CAKI-1 renal; > 1 µM in the assay on NCI-H460 lung; > 1 µM in the assay on MCF7 breast; > 0.582 µM with MALME-3M melanoma. Further, the concentration for total growth inhibition (TGI) with TK-10 renal was > 0.543 µM; in the assay with MOLT-4 leukemia, > 1 µM; in the assay on OVCAR-5 ovarian, > 1 µM; with NCI-H23 lung, > 0.894 µM.
With `C#CC#CC#CC#CC#CC#CC#CC#CCC1OCC(COC(=O)O[C@@H](C(=O)O[C@H]2C[C@@]3(O)[C@@H](OC(=O)c4ccccc4)[C@@H]4[C@]5(OC(C)=O)CO[C@@H]5C[C@H](O)[C@@]4(C)C(=O)[C@H](OC(C)=O)C(=C2C)C3(C)C)[C@@H](NC(=O)c2ccccc2)c2ccccc2)O1` (stereo not given in full), the GI50 with A549 NSCLC was 0.175 µM; in the assay with SN12C renal, 0.51 µM; in the assay on CAKI-1 renal it was 0.446 µM; with NCI-H460 lung, 0.0426 µM; in the assay with MCF7 breast it was 0.0461 µM; with MALME-3M melanoma, 0.28 µM. Further, the GI50 is > 16.3 µM in the assay on TK-10 renal, 0.212 µM in the assay with MOLT-4 leukemia, 0.25 µM in the assay with OVCAR-5 ovarian and 0.465 µM with NCI-H23 lung. For the same compound, the total growth inhibition concentration (TGI) in the assay with A549 NSCLC, with SN12C renal, with CAKI-1 renal, with NCI-H460 lung, with MCF7 breast and in the assay with MALME-3M melanoma was > 33.3 µM in each case. Moreover, the TGI in the assay on TK-10 renal, with MOLT-4 leukemia, in the assay on OVCAR-5 ovarian and in the assay on NCI-H23 lung was > 33.3 µM throughout.
For the compound `COc1cc(C(=O)c2c(-c3ccccc3)oc3c(OC)cccc23)cc(OC)c1OC`, the 50% growth inhibitory concentration (GI50) in the assay with A549 NSCLC was 0.0736 µM; with SN12C renal, 0.257 µM; in the assay on CAKI-1 renal, 0.0474 µM; in the assay with NCI-H460 lung it was 0.0518 µM; in the assay with MCF7 breast, 0.153 µM; in the assay with MALME-3M melanoma, 1.32 µM. The GI50 is 10 µM with TK-10 renal, 0.345 µM in the assay with MOLT-4 leukemia, 0.158 µM with OVCAR-5 ovarian and 0.106 µM in the assay on NCI-H23 lung. Moreover, the total growth inhibition concentration (TGI) was > 100 µM in the assay on A549 NSCLC; > 100 µM in the assay on SN12C renal; 21.9 µM in the assay on CAKI-1 renal; > 100 µM in the assay with NCI-H460 lung; > 100 µM in the assay on MCF7 breast; > 100 µM in the assay on MALME-3M melanoma. For the same compound, the TGI with TK-10 renal is > 62.2 µM; in the assay with MOLT-4 leukemia, > 100 µM; in the assay on OVCAR-5 ovarian it was > 100 µM; with NCI-H23 lung, 16.8 µM.
Take `Cc1[nH]c2ccccc2c1CCCO`: the GI50 with A549 NSCLC, with SN12C renal, in the assay with CAKI-1 renal, in the assay with NCI-H460 lung, with MCF7 breast and in the assay on MALME-3M melanoma was > 100 µM throughout. In addition, the GI50 in the assay on TK-10 renal, in the assay on MOLT-4 leukemia, in the assay on OVCAR-5 ovarian and in the assay on NCI-H23 lung was > 100 µM throughout. Also, the concentration for total growth inhibition (TGI) with A549 NSCLC, in the assay with SN12C renal, with CAKI-1 renal, in the assay on NCI-H460 lung, in the assay on MCF7 breast and in the assay with MALME-3M melanoma was > 100 µM throughout. The TGI in the assay on TK-10 renal, in the assay on MOLT-4 leukemia, in the assay on OVCAR-5 ovarian and with NCI-H23 lung was > 100 µM each time.

For the origin of these results see PubChem BioAssay (NCI).
